# From patent US4323581A, “Method of treating carcinogenesis” (priority 1978, dated 1982)
# How the values were obtained:
# [1] = Accumulation in the liver; assay type: in vivo; details: unlike the natural retinyl esters
# [2] = tested on: tracheal epithelium; assay: Reversal of keratinized squamous metaplastic lesions of vitamin A deficiency in tracheal organ culture; assay type: cell-based; details: for % of Cultures with Keratin and Keratohyaline Granules / % of Cultures with Respective Amounts of Squamous Metaplasia: None / % of Cultures with Respective Amounts of Squamous Metaplasia: Marked / % of Cultures with Respective Amounts of Squamous Metaplasia: Mild / % of Cultures with Respective Amounts of Squamous Metaplasia: Minimal / % of Cultures with Respective Amounts of Squamous Metaplasia: Severe: collected day 10; for % of Cultures with Respective Amounts of Squamous Metaplasia: Marked: marked = 10-40% squamous; for % of Cultures with Respective Amounts of Squamous Metaplasia: Mild: mild = 2-10% squamous; for % of Cultures with Respective Amounts of Squamous Metaplasia: Minimal: minimal = less than 2% squamous; for % of Cultures with Respective Amounts of Squamous Metaplasia: Severe: severe = more than 40% squamous
# Source text: N-(4-hydroxyphenyl)-all-trans-retinamide was compared with retinoic acid in an in vitro screening model for identifying retinoids having activity in preventing carcinogenesis in epithelial tissue. The experimental method, which is described in Experimental Lung Cancer:Intern'l Symp, 575-82, 1974, involves reversal of keratinization in tracheal organ culture.
# In brief summary, in the absence of retinoic acid or a synthetic retinoid having similar activity, the test organ culture of tracheal epithelium undergoes abnormal differentiation. Addition of small concentrations of retinoic acid (as low as 10^-9 M) will cause reversion to normal tracheal epithelium. Test compounds are compared in activity to retinoic acid or another active standard both as regards squamous metaplasia and keratin production, both of which are measures of abnormal development of the epithelial culture.
# In carrying out the tests reported in Table I, all tracheas were cultured for the first 3 days in medium without retinoid. At this time, some tracheas were collected, while the rest were cultured for a further week in medium containing either no retinoid, or retinoid added at the concentrations shown. These tracheas were collected on the 10th day of culture. Cultures were graded as to the percentage of their total epithelium showing squamous metaplasia on eight cross sections from the middle of each trachea. If more than 40% of the total epithelial length was squamous, it was graded as having severe squamous metaplasia; between 10-40% was graded as marked; between 2-10% was graded as mild; and less than 2% was graded as minimal.
# [3] = Systemic toxicity; details: in vivo
# [4] = Target specificity in concentrating at the breast; details: in vivo
# [5] = Toxicity compared to retinyl acetate; details: in vivo
# [6] = LD50 in Swiss mice; details: mouse, in vivo
# Method: The drug is administered at regular intervals, conveniently at meal times or once daily.
# [7] = U.S. Pat. No. 4,108,880; cited from earlier work
# [8] = tested on: MNU-induced mammary cancer; assay: Inhibition of mammary carcinogenesis induced by N-methyl-N-nitrosourea (MNU), rat breast cancer; assay type: in vivo, Female Sprague-Dawley rats; details: Table III
# Source text: On the basis of the encouraging results summarized in the foregoing example, N-(4-hydroxyphenyl)-all-trans-retinamide was compared to retinyl acetate in the experimental assay for efficacy against rat breast cancer described in Nature Vol. 267, pp 620-621 (June 16, 1977), which measures the ability to inhibit mammary carcinogenesis induced by N-methyl-N-nitrosourea (MNU). The results of further extension of the tests, comparing the 4-hydroxyphenyl retinamide only to placebo, after 18 weeks with high dose MNU and 21 weeks with low dose MNU, are set forth in Table III. The results using these two different levels of MNU and two dietary levels of retinoid are shown graphically in FIGS. 1 and 2 after 18 weeks of testing.
# Animals: Female Sprague-Dawley rats obtained from ARS Sprague-Dawley.
# Crystalline MNU. Rats received 2 I.V. injections at 50 and 57
# High dose is 50 mg/kg; low dose 15 mg/kg.
# Retinoids were dissolved in solvent and blended into the diets.
# placed on diets 3 days after last MNU injection.
# 50 gm trioctanoin:ethanol (3:1), 0.05 ml Tenox 20, 0.05 ml
# 50 gm retinoid solvent/kg diet.
# High dose is 50 mg/kg; low dose 15 mg/kg. Rats on high dose of
# sacrificed after 18 weeks.
# Placebo: 50 gm retinoid solvent/kg diet.
# [9] = compared with sunscreening amounts of retinoic acid; U.S. Pat. No. 4,108,880; cited from earlier work
# [10] = tested on: breast cancer; assay: Prevention of breast cancer in rats, oral dosing; assay type: in vivo; details: oral doses of 32 and 64 mg/kg/day
# [11] = tested on: MNU-induced mammary cancer; assay: Inhibition of mammary carcinogenesis induced by N-methyl-N-nitrosourea (MNU), rat breast cancer; assay type: in vivo, Female Sprague-Dawley rats
# [12] = tested on: epithelial cancer; assay: Effectiveness in preventing epithelial cancer in mammals; assay type: in vivo; details: at reasonable dose levels
# [13] = 18 weeks, MNU high dose (50 mg/kg), 391 mg/kg diet
# [14] = 21 weeks, MNU low dose (15 mg/kg), 391 mg/kg diet
# [15] = Table II, 73 days, MNU high dose (50 mg/kg), 391 mg/kg diet
# [16] = Table II, 73 days, MNU high dose (50 mg/kg), 782 mg/kg diet
# [17] = Table II, 73 days, MNU low dose (15 mg/kg), 391 mg/kg diet
# [18] = Table II, 73 days, MNU low dose (15 mg/kg), 782 mg/kg diet
# [19] = Table II, 73 days, saline, 391 mg/kg diet
# [20] = Table II, 73 days, saline, 782 mg/kg diet
# [21] = Table III, 18 weeks, MNU high dose (50 mg/kg), 782 mg/kg diet
# [22] = Table III, 21 weeks, MNU low dose (15 mg/kg), 782 mg/kg diet
# [23] = Table III, saline, 391 mg/kg diet
# [24] = Table III, saline, 782 mg/kg diet
smiles,measurement,setting,value
"CC1=C(/C=C/C(C)=C/C=C/C(C)=C/C(=O)Nc2ccc(O)cc2)C(C)(C)CCC1 [4-Hydroxyphenyl Retinamide, N-(4-hydroxyphenyl)-all-trans-retinamide]",accumulation in the liver,[1],does not accumulate in the liver in appreciable amounts
same,efficacy relative to retinoic acid,[2]; 10^-8 M,at least as efficacious as retinoic acid
same,% of Cultures with Keratin and Keratohyaline Granules,[2]; 10^-8 M,0%
same,% of Cultures with Respective Amounts of Squamous Metaplasia: None,[2]; 10^-8 M,20%
same,% of Cultures with Respective Amounts of Squamous Metaplasia: Marked,[2]; 10^-8 M,0%
same,% of Cultures with Respective Amounts of Squamous Metaplasia: Mild,[2]; 10^-8 M,0%
same,% of Cultures with Respective Amounts of Squamous Metaplasia: Minimal,[2]; 10^-8 M,80%
same,% of Cultures with Respective Amounts of Squamous Metaplasia: Severe,[2]; 10^-8 M,0%
same,efficacy relative to retinoic acid,[2]; 10^-9 M,nearly as efficaceous
same,% of Cultures with Keratin and Keratohyaline Granules,[2]; 10^-9 M,40%
same,% of Cultures with Respective Amounts of Squamous Metaplasia: None,[2]; 10^-9 M,20%
same,% of Cultures with Respective Amounts of Squamous Metaplasia: Marked,[2]; 10^-9 M,0%
same,% of Cultures with Respective Amounts of Squamous Metaplasia: Mild,[2]; 10^-9 M,30%
same,% of Cultures with Respective Amounts of Squamous Metaplasia: Minimal,[2]; 10^-9 M,20%
same,% of Cultures with Respective Amounts of Squamous Metaplasia: Severe,[2]; 10^-9 M,30%
same,efficacy,[2]; 10^-10 M,virtually inefficacious
same,% of Cultures with Keratin and Keratohyaline Granules,[2]; 10^-10 M,100%
same,% of Cultures with Respective Amounts of Squamous Metaplasia: None,[2]; 10^-10 M,0%
same,% of Cultures with Respective Amounts of Squamous Metaplasia: Marked,[2]; 10^-10 M,75%
same,% of Cultures with Respective Amounts of Squamous Metaplasia: Mild,[2]; 10^-10 M,12%
same,% of Cultures with Respective Amounts of Squamous Metaplasia: Minimal,[2]; 10^-10 M,0%
same,% of Cultures with Respective Amounts of Squamous Metaplasia: Severe,[2]; 10^-10 M,12%
same,systemic toxicity,[3],low systemic toxicity
same,target specificity in concentrating at the breast,[4],adequate target specificity in concentrating at the breast
same,toxicity relative to retinyl acetate,[5],less toxic
same,LD50,[6]; ip,436 mg/kg
same,LD50,[6]; po,> 400 mg/kg
same,ultraviolet absorption,[7],good ultraviolet absorber
same,Mammary Tumor Incidence,[8]; [13],13/16
same,Mammary Tumor Incidence (%),[8]; [13],81%
same,Mammary Tumor Incidence (%),"[8]; 18 weeks, MNU high dose (50 mg/kg), 782 mg/kg diet",64%
same,Mammary Tumor Incidence (%),[8]; [14],12%
same,Total Number of Tumors,[8]; [14],5
same,Mammary Tumor Incidence,"[8]; saline, 391 mg/kg diet",0/10
same,Total Number of Tumors,"[8]; saline, 782 mg/kg diet",0
same,irritating effect on skin,[9],does not have the irritating effect on skin that would be expected from the use of sunscreening amounts of retinoic acid
same,prevention of breast cancer in rats,[10],very effective in preventing breast cancer in rats
same,efficacy relative to retinyl acetate,[11]; MNU-induced mammary carcinogenesis,substantially as efficacious as retinyl acetate
same,Mammary Tumor Incidence,[11]; [15],5/16
same,Mammary Tumor Incidence (%),[11]; [15],31%
same,Mammary Tumor Incidence,[11]; [16],0/17
same,Mammary Tumor Incidence (%),[11]; [16],0%
same,Mammary Tumor Incidence,[11]; [17],0/40
same,Mammary Tumor Incidence (%),[11]; [17],0%
same,Mammary Tumor Incidence,[11]; [18],0/39
same,Mammary Tumor Incidence (%),[11]; [18],0%
same,Mammary Tumor Incidence,[11]; [19],0/10
same,Mammary Tumor Incidence (%),[11]; [19],0%
same,Mammary Tumor Incidence,[11]; [20],0/10
same,Mammary Tumor Incidence (%),[11]; [20],0%
same,Total Number of Tumors,"[11]; Table III, 18 weeks, MNU high dose (50 mg/kg), 391 mg/kg diet",48
same,Mammary Tumor Incidence,[11]; [21],11/17
same,Total Number of Tumors,[11]; [21],37
same,Mammary Tumor Incidence,"[11]; Table III, 21 weeks, MNU low dose (15 mg/kg), 391 mg/kg diet",5/40
same,Mammary Tumor Incidence,[11]; [22],3/39
same,Mammary Tumor Incidence (%),[11]; [22],8%
same,Total Number of Tumors,[11]; [22],4
same,Mammary Tumor Incidence (%),[11]; [23],0%
same,Total Number of Tumors,[11]; [23],0
same,Mammary Tumor Incidence,[11]; [24],0/10
same,Mammary Tumor Incidence (%),[11]; [24],0%
same,effectiveness in preventing epithelial cancer in mammals,[12],good effectiveness in preventing epithelial cancer in mammals
